Assay results published in PubChem BioAssay (NCI).
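Assay format: 96-well plates, 48-hour exposure. TGI marks complete inhibition of growth.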

Test system: HOP-62 NSCLC
Test: DTP human tumour cell line panel, 48 h

Row | Compound | TGI [µM]
1 | CCOP(=O)(O)C(Nc1ccc(N=Nc2ccccc2)cc1)c1cccc(C(Nc2ccc(N=Nc3ccccc3)cc2)P(=O)(O)OCC)c1 (centres undefined) | 58.5
2 | N#CCc1cccc(CC#N)c1Br | > 100
3 | COC(=O)c1c(O)ccc2c1c1c(n2Cc2cc(OC)cc(OC)c2)C(=O)c2ccccc2C1=O | 23
4 | COc1cc([C@@H]2c3cc4c(cc3[C@@H](NCc3cccc(C#N)c3)C3COC(=O)[C@@H]32)OCO4)cc(OC)c1O (some centres undefined) | 1.79

Test system: HCT-116 colon
Test: DTP human tumour cell line panel, 48 h

Row | Compound | TGI [µM]
5 | CCCCCCCCCCCCCCCc1nc(=S)[nH][nH]1 | > 100
6 | O=C1OC(=O)C([Se]c2ccccc2)=C1[Se]c1ccccc1 | > 100
7 | CCOP(=O)(O)C(Nc1ccc(N=Nc2ccccc2)cc1)c1cccc(C(Nc2ccc(N=Nc3ccccc3)cc2)P(=O)(O)OCC)c1 (centres undefined) | > 100
8 | CCCCCCCCC(O)c1ccc(/C=C\C(O)CCCC(=O)O)s1 (centres undefined) | > 100
9 | N#CCc1cccc(CC#N)c1Br | > 100
10 | COC(=O)c1c(O)ccc2c1c1c(n2Cc2cc(OC)cc(OC)c2)C(=O)c2ccccc2C1=O | 15.1
11 | COc1cc([C@@H]2c3cc4c(cc3[C@@H](NCc3cccc(C#N)c3)C3COC(=O)[C@@H]32)OCO4)cc(OC)c1O (some centres undefined) | 21.4

Test system: RXF 393 renal
Test: DTP human tumour cell line panel, 48 h

Row | Compound | TGI [µM]
12 | CCCCCCCCCCCCCCCc1nc(=S)[nH][nH]1 | > 100
13 | O=C1OC(=O)C([Se]c2ccccc2)=C1[Se]c1ccccc1 | > 100
14 | CCOP(=O)(O)C(Nc1ccc(N=Nc2ccccc2)cc1)c1cccc(C(Nc2ccc(N=Nc3ccccc3)cc2)P(=O)(O)OCC)c1 (centres undefined) | > 100
15 | CCCCCCCCC(O)c1ccc(/C=C\C(O)CCCC(=O)O)s1 (centres undefined) | > 100
16 | N#CCc1cccc(CC#N)c1Br | 93.7
17 | COC(=O)c1c(O)ccc2c1c1c(n2Cc2cc(OC)cc(OC)c2)C(=O)c2ccccc2C1=O | 45.6
18 | COc1cc([C@@H]2c3cc4c(cc3[C@@H](NCc3cccc(C#N)c3)C3COC(=O)[C@@H]32)OCO4)cc(OC)c1O (some centres undefined) | 19.6

Test system: TK-10 renal
Test: DTP human tumour cell line panel, 48 h

Row | Compound | TGI [µM]
19 | CCCCCCCCCCCCCCCc1nc(=S)[nH][nH]1 | > 100
20 | O=C1OC(=O)C([Se]c2ccccc2)=C1[Se]c1ccccc1 | > 100
21 | CCOP(=O)(O)C(Nc1ccc(N=Nc2ccccc2)cc1)c1cccc(C(Nc2ccc(N=Nc3ccccc3)cc2)P(=O)(O)OCC)c1 (centres undefined) | > 100
22 | CCCCCCCCC(O)c1ccc(/C=C\C(O)CCCC(=O)O)s1 (centres undefined) | > 100
23 | COC(=O)c1c(O)ccc2c1c1c(n2Cc2cc(OC)cc(OC)c2)C(=O)c2ccccc2C1=O | 41.1
24 | COc1cc([C@@H]2c3cc4c(cc3[C@@H](NCc3cccc(C#N)c3)C3COC(=O)[C@@H]32)OCO4)cc(OC)c1O (some centres undefined) | 6.84

Test system: BT-549 breast
Test: DTP human tumour cell line panel, 48 h

Row | Compound | TGI [µM]
25 | CCOP(=O)(O)C(Nc1ccc(N=Nc2ccccc2)cc1)c1cccc(C(Nc2ccc(N=Nc3ccccc3)cc2)P(=O)(O)OCC)c1 (centres undefined) | > 100
26 | COC(=O)c1c(O)ccc2c1c1c(n2Cc2cc(OC)cc(OC)c2)C(=O)c2ccccc2C1=O | 29

Test system: HS 578T breast
Test: DTP human tumour cell line panel, 48 h

Row | Compound | TGI [µM]
27 | CCOP(=O)(O)C(Nc1ccc(N=Nc2ccccc2)cc1)c1cccc(C(Nc2ccc(N=Nc3ccccc3)cc2)P(=O)(O)OCC)c1 (centres undefined) | > 100
28 | COC(=O)c1c(O)ccc2c1c1c(n2Cc2cc(OC)cc(OC)c2)C(=O)c2ccccc2C1=O | 45.9

Test system: HOP-92 NSCLC
Test: DTP human tumour cell line panel, 48 h

Row | Compound | TGI [µM]
29 | O=C1OC(=O)C([Se]c2ccccc2)=C1[Se]c1ccccc1 | > 100
30 | CCOP(=O)(O)C(Nc1ccc(N=Nc2ccccc2)cc1)c1cccc(C(Nc2ccc(N=Nc3ccccc3)cc2)P(=O)(O)OCC)c1 (centres undefined) | > 100
31 | CCCCCCCCC(O)c1ccc(/C=C\C(O)CCCC(=O)O)s1 (centres undefined) | > 100
32 | N#CCc1cccc(CC#N)c1Br | > 100
33 | COC(=O)c1c(O)ccc2c1c1c(n2Cc2cc(OC)cc(OC)c2)C(=O)c2ccccc2C1=O | 24.6
34 | COc1cc([C@@H]2c3cc4c(cc3[C@@H](NCc3cccc(C#N)c3)C3COC(=O)[C@@H]32)OCO4)cc(OC)c1O (some centres undefined) | 9.83

Test system: LOX IMVI melanoma
Test: DTP human tumour cell line panel, 48 h

Row | Compound | TGI [µM]
35 | CCCCCCCCCCCCCCCc1nc(=S)[nH][nH]1 | > 100
36 | O=C1OC(=O)C([Se]c2ccccc2)=C1[Se]c1ccccc1 | > 100
37 | CCOP(=O)(O)C(Nc1ccc(N=Nc2ccccc2)cc1)c1cccc(C(Nc2ccc(N=Nc3ccccc3)cc2)P(=O)(O)OCC)c1 (centres undefined) | 77.4
38 | CCCCCCCCC(O)c1ccc(/C=C\C(O)CCCC(=O)O)s1 (centres undefined) | > 100
39 | N#CCc1cccc(CC#N)c1Br | > 100
40 | COC(=O)c1c(O)ccc2c1c1c(n2Cc2cc(OC)cc(OC)c2)C(=O)c2ccccc2C1=O | 63.5
41 | COc1cc([C@@H]2c3cc4c(cc3[C@@H](NCc3cccc(C#N)c3)C3COC(=O)[C@@H]32)OCO4)cc(OC)c1O (some centres undefined) | 8.36

Test system: LXFL 529 NSCLC
Test: DTP human tumour cell line panel, 48 h

Row | Compound | TGI [µM]
42 | CCCCCCCCCCCCCCCc1nc(=S)[nH][nH]1 | > 100
43 | O=C1OC(=O)C([Se]c2ccccc2)=C1[Se]c1ccccc1 | > 100
44 | CCCCCCCCC(O)c1ccc(/C=C\C(O)CCCC(=O)O)s1 (centres undefined) | > 100
45 | N#CCc1cccc(CC#N)c1Br | > 100
46 | COc1cc([C@@H]2c3cc4c(cc3[C@@H](NCc3cccc(C#N)c3)C3COC(=O)[C@@H]32)OCO4)cc(OC)c1O (some centres undefined) | > 100

Test system: SK-MEL-5 melanoma
Test: DTP human tumour cell line panel, 48 h

Row | Compound | TGI [µM]
47 | O=C1OC(=O)C([Se]c2ccccc2)=C1[Se]c1ccccc1 | > 100
48 | CCOP(=O)(O)C(Nc1ccc(N=Nc2ccccc2)cc1)c1cccc(C(Nc2ccc(N=Nc3ccccc3)cc2)P(=O)(O)OCC)c1 (centres undefined) | > 100
49 | CCCCCCCCC(O)c1ccc(/C=C\C(O)CCCC(=O)O)s1 (centres undefined) | > 100
50 | COC(=O)c1c(O)ccc2c1c1c(n2Cc2cc(OC)cc(OC)c2)C(=O)c2ccccc2C1=O | 26.7
51 | COc1cc([C@@H]2c3cc4c(cc3[C@@H](NCc3cccc(C#N)c3)C3COC(=O)[C@@H]32)OCO4)cc(OC)c1O (some centres undefined) | 13

Test system: MOLT-4 leukemia
Test: DTP human tumour cell line panel, 48 h

Row | Compound | TGI [µM]
52 | CCCCCCCCCCCCCCCc1nc(=S)[nH][nH]1 | > 100
53 | O=C1OC(=O)C([Se]c2ccccc2)=C1[Se]c1ccccc1 | > 100
54 | CCOP(=O)(O)C(Nc1ccc(N=Nc2ccccc2)cc1)c1cccc(C(Nc2ccc(N=Nc3ccccc3)cc2)P(=O)(O)OCC)c1 (centres undefined) | 60.5
55 | CCCCCCCCC(O)c1ccc(/C=C\C(O)CCCC(=O)O)s1 (centres undefined) | > 100
56 | N#CCc1cccc(CC#N)c1Br | > 100
57 | COC(=O)c1c(O)ccc2c1c1c(n2Cc2cc(OC)cc(OC)c2)C(=O)c2ccccc2C1=O | 73.3
58 | COc1cc([C@@H]2c3cc4c(cc3[C@@H](NCc3cccc(C#N)c3)C3COC(=O)[C@@H]32)OCO4)cc(OC)c1O (some centres undefined) | 1.43

Test system: UO-31 renal
Test: DTP human tumour cell line panel, 48 h

Row | Compound | TGI [µM]
59 | CCCCCCCCCCCCCCCc1nc(=S)[nH][nH]1 | > 100
60 | CCOP(=O)(O)C(Nc1ccc(N=Nc2ccccc2)cc1)c1cccc(C(Nc2ccc(N=Nc3ccccc3)cc2)P(=O)(O)OCC)c1 (centres undefined) | > 100
61 | CCCCCCCCC(O)c1ccc(/C=C\C(O)CCCC(=O)O)s1 (centres undefined) | > 100
62 | N#CCc1cccc(CC#N)c1Br | > 100
63 | COC(=O)c1c(O)ccc2c1c1c(n2Cc2cc(OC)cc(OC)c2)C(=O)c2ccccc2C1=O | 40.5
64 | COc1cc([C@@H]2c3cc4c(cc3[C@@H](NCc3cccc(C#N)c3)C3COC(=O)[C@@H]32)OCO4)cc(OC)c1O (some centres undefined) | 5.52

Test system: HT29 colon
Test: DTP human tumour cell line panel, 48 h

Row | Compound | TGI [µM]
65 | CCCCCCCCCCCCCCCc1nc(=S)[nH][nH]1 | > 100
66 | O=C1OC(=O)C([Se]c2ccccc2)=C1[Se]c1ccccc1 | > 100
67 | CCOP(=O)(O)C(Nc1ccc(N=Nc2ccccc2)cc1)c1cccc(C(Nc2ccc(N=Nc3ccccc3)cc2)P(=O)(O)OCC)c1 (centres undefined) | 40.9
68 | CCCCCCCCC(O)c1ccc(/C=C\C(O)CCCC(=O)O)s1 (centres undefined) | > 100
69 | N#CCc1cccc(CC#N)c1Br | > 100
70 | COC(=O)c1c(O)ccc2c1c1c(n2Cc2cc(OC)cc(OC)c2)C(=O)c2ccccc2C1=O | 5.42
71 | COc1cc([C@@H]2c3cc4c(cc3[C@@H](NCc3cccc(C#N)c3)C3COC(=O)[C@@H]32)OCO4)cc(OC)c1O (some centres undefined) | 5.51

Test system: SF-295 CNS
Test: DTP human tumour cell line panel, 48 h

Row | Compound | TGI [µM]
72 | O=C1OC(=O)C([Se]c2ccccc2)=C1[Se]c1ccccc1 | > 100
73 | CCOP(=O)(O)C(Nc1ccc(N=Nc2ccccc2)cc1)c1cccc(C(Nc2ccc(N=Nc3ccccc3)cc2)P(=O)(O)OCC)c1 (centres undefined) | 58.1
74 | CCCCCCCCC(O)c1ccc(/C=C\C(O)CCCC(=O)O)s1 (centres undefined) | > 100
75 | N#CCc1cccc(CC#N)c1Br | > 100
76 | COC(=O)c1c(O)ccc2c1c1c(n2Cc2cc(OC)cc(OC)c2)C(=O)c2ccccc2C1=O | 32.7
77 | COc1cc([C@@H]2c3cc4c(cc3[C@@H](NCc3cccc(C#N)c3)C3COC(=O)[C@@H]32)OCO4)cc(OC)c1O (some centres undefined) | 7

Test system: SK-MEL-28 melanoma
Test: DTP human tumour cell line panel, 48 h

Row | Compound | TGI [µM]
78 | CCCCCCCCCCCCCCCc1nc(=S)[nH][nH]1 | > 100
79 | O=C1OC(=O)C([Se]c2ccccc2)=C1[Se]c1ccccc1 | > 100
80 | CCOP(=O)(O)C(Nc1ccc(N=Nc2ccccc2)cc1)c1cccc(C(Nc2ccc(N=Nc3ccccc3)cc2)P(=O)(O)OCC)c1 (centres undefined) | 93.7
81 | CCCCCCCCC(O)c1ccc(/C=C\C(O)CCCC(=O)O)s1 (centres undefined) | > 100
82 | COC(=O)c1c(O)ccc2c1c1c(n2Cc2cc(OC)cc(OC)c2)C(=O)c2ccccc2C1=O | 33
83 | COc1cc([C@@H]2c3cc4c(cc3[C@@H](NCc3cccc(C#N)c3)C3COC(=O)[C@@H]32)OCO4)cc(OC)c1O (some centres undefined) | 46.1

Test system: SN12C renal
Test: DTP human tumour cell line panel, 48 h

Row | Compound | TGI [µM]
84 | CCCCCCCCCCCCCCCc1nc(=S)[nH][nH]1 | > 100
85 | O=C1OC(=O)C([Se]c2ccccc2)=C1[Se]c1ccccc1 | > 100
86 | CCOP(=O)(O)C(Nc1ccc(N=Nc2ccccc2)cc1)c1cccc(C(Nc2ccc(N=Nc3ccccc3)cc2)P(=O)(O)OCC)c1 (centres undefined) | > 100
87 | CCCCCCCCC(O)c1ccc(/C=C\C(O)CCCC(=O)O)s1 (centres undefined) | > 100
88 | N#CCc1cccc(CC#N)c1Br | > 100
89 | COC(=O)c1c(O)ccc2c1c1c(n2Cc2cc(OC)cc(OC)c2)C(=O)c2ccccc2C1=O | 24.2
90 | COc1cc([C@@H]2c3cc4c(cc3[C@@H](NCc3cccc(C#N)c3)C3COC(=O)[C@@H]32)OCO4)cc(OC)c1O (some centres undefined) | 2.93

Test system: OVCAR-4 ovarian
Test: DTP human tumour cell line panel, 48 h

Row | Compound | TGI [µM]
91 | CCCCCCCCCCCCCCCc1nc(=S)[nH][nH]1 | > 100
92 | O=C1OC(=O)C([Se]c2ccccc2)=C1[Se]c1ccccc1 | > 100
93 | CCOP(=O)(O)C(Nc1ccc(N=Nc2ccccc2)cc1)c1cccc(C(Nc2ccc(N=Nc3ccccc3)cc2)P(=O)(O)OCC)c1 (centres undefined) | > 100
94 | CCCCCCCCC(O)c1ccc(/C=C\C(O)CCCC(=O)O)s1 (centres undefined) | > 100
